Measurements: patent US11202807B2, “Bacterial species” (WAGENINGEN UNIVERSITEIT, priority 2016, dated 2021)
In brackets after ≈: the same amount, converted by molar mass. Read-outs that look alike come from different tables or passages of the source.

Tested on: strain Pyt^T
Test: Antibiotic resistance by the Etest method (MIC)
Type: cell-based, Akkermansia glycaniphilus
Settings: for Level of resistance / sensitivity of strain Pyt^T to the antibiotic: EUCAST breakpoint table for Gram-negative anaerobes (Version 5.0); for MIC: read-out: Minimal Inhibitory Concentration (MIC)
Procedure: Antibiotic resistance was determined using the Etest method for both ampicillin and vancomycin (bioMérieux, Marcy l'Étoile, France). The minimal inhibitory concentration (MIC) was determined after 48 hours of incubation. In more detail, strain Pyt^T was grown in mucin media and after reaching stationary phase 100 ul was plated onto BHI plates supplemented with 0.5% (v/v) hog gastric mucin (Type III, Sigma), and 0.05% (w/v) of cysteine-HCL (Sigma-ALdrich). Plates were incubated for 24-48 hours under strictly anaerobic conditions. The level of resistance was determined using the European Committee on Antimicrobial Susceptibility Testing (EUCAST) breakpoint table for interpretation of MICs for Gram-negative anaerobes (Version 5.0, valid from 2015-01-01).

Molecule | Level of resistance / sensitivity of strain Pyt^T to the antibiotic (Etest) | MIC (48 h) [µg/mL] | MIC (Etest, BHI plates with 0.5% hog gastric mucin and 0.05% cysteine-HCl, strictly anaerobic, read after 48 hours) [µg/mL]
cholistin | sensitive |  | 
Cc1ncc([N+](=O)[O-])n1CCO [metronidazole] | sensitive |  | 
CN[C@H](CC(C)C)C(=O)N[C@H]1C(=O)N[C@@H](CC(N)=O)C(=O)N[C@H]2C(=O)N[C@H]3C(=O)N[C@H](C(=O)N[C@H](C(=O)O)c4cc(O)cc(O)c4-c4cc3ccc4O)[C@H](O)c3ccc(c(Cl)c3)Oc3cc2cc(c3O[C@@H]2O[C@H](CO)[C@@H](O)[C@H](O)[C@H]2O[C@H]2C[C@](C)(N)[C@H](O)[C@H](C)O2)Oc2ccc(cc2Cl)[C@H]1O [vancomycin] | relatively resistant | 24 (≈ 16.6 µM) | 
O=C(N[C@H](CO)[C@H](O)c1ccc([N+](=O)[O-])cc1)C(Cl)Cl [chloramphenicol] | sensitive |  | 
CC1(C)S[C@@H]2[C@H](NC(=O)[C@H](N)c3ccccc3)C(=O)N2[C@H]1C(=O)O [ampicillin] | relatively resistant |  | 32 (≈ 91.6 µM)
